A word on the IC50: it is the midpoint of a concentration-inhibition curve. A word on the IC90: it is the concentration at which the effect reaches the 90% level.

The test has as its system Plasmodium berghei. Description: Luciferase/luciferin-expressing antifolate-resistant parasites were used to infect a culture of HepG2 cells that were pre-incubated with compounds. Infected hepatocytes emit light due to the luciferase reaction. Assay results are presented as the percent inhibition of light emission compared to control. […]. Conditions: sporozoite; for IC90: read-out: LUCIFERASE INFECTION ASSAY - IC90. It is filed as functional.

The structures appear in SMILES notation. A value given as a limit tells only on which side of the number the result lay.

`Cc1ccccc1-n1c(C)cc(/C=C(\C#N)C(=O)NCC2CCCO2)c1C` (configuration not stated): the IC90 came out at 6.25 µM. Moreover, the IC50 (PBLUC_HILL_SLOPE 1.57, PBLUC_R_SQUARED 0.725, read-out: LUCIFERASE INFECTION ASSAY - IC50) was found to be 1.55 µM.
For `CN(C)c1ccc(C2CNC(c3ccc(Cl)c([N+](=O)[O-])c3)c3[nH]c4ccccc4c32)cc1` (configuration not stated), the IC90 is above 10 µM. In addition, where the note is “PBLUC_HILL_SLOPE 1.52, PBLUC_R_SQUARED 0.0896, read-out: LUCIFERASE INFECTION ASSAY - IC50”, the IC50 was above 10 µM.
Turning to `S=C(NCCc1csc2ccccc12)Nc1ccc(Cl)cc1`, the IC90 was above 9.51 µM. Further, the IC50 (PBLUC_HILL_SLOPE 1.56, PBLUC_R_SQUARED 0.124, read-out: LUCIFERASE INFECTION ASSAY - IC50) was above 9.51 µM.
For the molecule `N#CC1(C#N)C2C=CC(C2)C1(C#N)C#N`, the IC90 is above 17 µM. Where the note is “PBLUC_HILL_SLOPE 1.54, PBLUC_R_SQUARED 0.0374, read-out: LUCIFERASE INFECTION ASSAY - IC50”, the IC50 is above 17 µM.
`Cc1ccc(SCc2ccc(-c3nc4ccccc4s3)cc2)cc1`: the IC90 was above 9.5 µM. The IC50 (PBLUC_HILL_SLOPE 1.56, PBLUC_R_SQUARED 0.316, read-out: LUCIFERASE INFECTION ASSAY - IC50) is 4.39 µM.
Consider `Cn1nnnc1SCC(=O)Nc1ccc(C(=O)Nc2ncccc2O)cc1`, for which the IC90 was found to be 6.88 µM. The IC50 (PBLUC_HILL_SLOPE 1.53, PBLUC_R_SQUARED 0.512, read-out: LUCIFERASE INFECTION ASSAY - IC50) amounted to 1.64 µM.
As to `Cc1ccc(OCc2csc(-c3cnn(C)c3)n2)c2c1C(C)CC2=O` (configuration not stated), the IC90 is above 10 µM. The IC50 (PBLUC_HILL_SLOPE 1.52, PBLUC_R_SQUARED 0.607, read-out: LUCIFERASE INFECTION ASSAY - IC50) turned out to be 3.47 µM.
Consider `COc1ccc2c(c1)CCCC21NC(=O)N(Cc2nc3ccccc3s2)C1=O` (configuration not stated), for which the IC90 amounted to 8.43 µM. For the same molecule, the IC50 (PBLUC_HILL_SLOPE 1.51, PBLUC_R_SQUARED 0.684, read-out: LUCIFERASE INFECTION ASSAY - IC50) was found to be 1.97 µM.
In the case of `O=C(CSc1nnc(/C=C/c2ccc(F)cc2)[nH]1)N(c1ccccc1)C1CCCCC1`, the IC90 was found to be 1.58 µM. The IC50 (PBLUC_HILL_SLOPE 1.52, PBLUC_R_SQUARED 0.866, read-out: LUCIFERASE INFECTION ASSAY - IC50) stood at 0.374 µM.
As for `CC(=O)c1cccc(-c2cnc3cnc(-c4cccc(C(N)=O)c4)cn23)c1`, the IC90 was above 9.26 µM. Besides, for the setting “PBLUC_HILL_SLOPE 1.58, PBLUC_R_SQUARED 0.572, read-out: LUCIFERASE INFECTION ASSAY - IC50”, the IC50 amounted to 3.69 µM.
Turning to `C#CCNS(=O)(=O)c1ccc(C(=O)Nc2ccccc2O)cc1`, the IC90 is 7.83 µM. In addition, the IC50 (PBLUC_HILL_SLOPE 1.57, PBLUC_R_SQUARED 0.611, read-out: LUCIFERASE INFECTION ASSAY - IC50) came to 1.93 µM.
Regarding `CNc1nc2cnc(-c3cccc4ccccc34)cc2n1-c1ccccc1`, the IC90 is above 10 µM. Also, the IC50 (PBLUC_HILL_SLOPE 1.54, PBLUC_R_SQUARED 0.64, read-out: LUCIFERASE INFECTION ASSAY - IC50) came to 4.99 µM.
On to `Cc1ccc(NC(=O)COc2ccc3c(c2C)OC(C)(C)CC3)cc1`, for which the IC90 was above 9.72 µM. In addition, for the setting “PBLUC_HILL_SLOPE 1.51, PBLUC_R_SQUARED 0.601, read-out: LUCIFERASE INFECTION ASSAY - IC50”, the IC50 amounted to 3.8 µM.
`COc1ccc(O)c(C(=O)c2cc(Cl)c3nc4ccccc4c(=O)n3c2)c1`: the IC90 worked out at 0.494 µM. In addition, under “PBLUC_HILL_SLOPE 1.52, PBLUC_R_SQUARED 0.671, read-out: LUCIFERASE INFECTION ASSAY - IC50”, the IC50 worked out at 0.117 µM.
For the molecule `CC(C)(C)c1cc(C(=O)Nc2ccc(Cl)cc2)n(Cc2ccccc2)n1`, the IC90 was above 8.97 µM. Also, under “PBLUC_HILL_SLOPE 1.52, PBLUC_R_SQUARED 0.257, read-out: LUCIFERASE INFECTION ASSAY - IC50”, the IC50 was found to be 6.98 µM.
As for `CCNC(=O)c1nn(Cc2ccccc2)c2c1CC(NCC(C)C)CC2` (configuration not stated), the IC90 was above 9.31 µM. In addition, under “PBLUC_HILL_SLOPE 1.56, PBLUC_R_SQUARED 0.224, read-out: LUCIFERASE INFECTION ASSAY - IC50”, the IC50 was 6.64 µM.
Turning to `CCCCNC(=O)COc1ccc2[nH]c3ccccc3c(=O)c2c1`, the concentration for an effect of 90% (IC90) is 8.21 µM. In addition, the IC50 (PBLUC_HILL_SLOPE 1.51, PBLUC_R_SQUARED 0.724, read-out: LUCIFERASE INFECTION ASSAY - IC50) was determined as 1.92 µM.
For `CC1CCN(CCOc2ccc(-c3n[nH]cc3-c3ccccc3)c(O)c2)CC1`, the IC90 is above 8.74 µM. In addition, the IC50 (PBLUC_HILL_SLOPE 1.57, PBLUC_R_SQUARED 0.734, read-out: LUCIFERASE INFECTION ASSAY - IC50) is above 8.74 µM.
With `FC(F)(F)c1ccnc(N2CCN(C(c3ccccc3)c3ccccc3)CC2)c1`, the IC90 was above 8.3 µM. Further, the IC50 (PBLUC_HILL_SLOPE 1.54, PBLUC_R_SQUARED 0.0984, read-out: LUCIFERASE INFECTION ASSAY - IC50) is above 8.3 µM.
Turning to `CC(C)c1cc(C(=O)N2CCc3c(cc(-c4cccc(F)c4)c(=O)n3CCN3CCCCC3)C2)[nH]n1`, the IC90 is above 6.71 µM. The IC50 (PBLUC_HILL_SLOPE 1.58, PBLUC_R_SQUARED 0.377, read-out: LUCIFERASE INFECTION ASSAY - IC50) is 1.78 µM.
As for `c1cc[n+](Cc2ccc(-c3nc4ccccc4s3)cc2)cc1`, the IC90 turned out to be 7.9 µM. Where the note is “PBLUC_HILL_SLOPE 1.53, PBLUC_R_SQUARED 0.36, read-out: LUCIFERASE INFECTION ASSAY - IC50”, the IC50 stood at 1.88 µM.
In the case of `COC(=O)C1=CC2C3C(=O)N(c4cc(Cl)cc(Cl)c4)C(=O)C3C1C1C(=O)N(c3cc(Cl)cc(Cl)c3)C(=O)C21` (configuration not stated), the IC90 was above 5.55 µM. Also, where the note is “PBLUC_HILL_SLOPE 1.53, PBLUC_R_SQUARED 0.573, read-out: LUCIFERASE INFECTION ASSAY - IC50”, the IC50 worked out at 2.18 µM.
With `Clc1ccc2c(NCc3ccc(-n4cccn4)nc3)ncnc2c1`, the IC90 was above 10 µM. Besides, under “PBLUC_HILL_SLOPE 1.57, PBLUC_R_SQUARED 0.509, read-out: LUCIFERASE INFECTION ASSAY - IC50”, the IC50 came to 3.37 µM.
Take `COc1ncccc1-c1cc2c(cn1)nc(Nc1cccc(C(F)(F)F)c1)n2C`: the IC90 is above 10 µM. Moreover, the IC50 (PBLUC_HILL_SLOPE 1.56, PBLUC_R_SQUARED 0.782, read-out: LUCIFERASE INFECTION ASSAY - IC50) was 2.89 µM.
For the molecule `C(=C\c1nc2ccccc2s1)/c1ccc(CN2CCCCC2)cc1`, the IC90 was 2.91 µM. Moreover, the IC50 (PBLUC_HILL_SLOPE 1.51, PBLUC_R_SQUARED 0.817, read-out: LUCIFERASE INFECTION ASSAY - IC50) turned out to be 0.679 µM.
For `Cc1nc2ccc(NC(=O)c3ccc4[nH]c(C)c(C)c4c3)cc2s1`, the IC90 is above 9.84 µM. In addition, under “PBLUC_HILL_SLOPE 1.58, PBLUC_R_SQUARED 0.399, read-out: LUCIFERASE INFECTION ASSAY - IC50”, the IC50 is above 9.84 µM.
In the case of `c1ccc(OCCCn2c(CN3CCCCC3)nc3ccccc32)cc1`, the IC90 was above 9.44 µM. The IC50 (PBLUC_HILL_SLOPE 1.54, PBLUC_R_SQUARED 0.0855, read-out: LUCIFERASE INFECTION ASSAY - IC50) is above 9.44 µM.
In the case of `CCOC(=O)N1CCC(NCC(O)COc2ccc(C(C)(C)C)cc2)CC1` (configuration not stated), the IC90 is above 10 µM. In addition, the IC50 (PBLUC_HILL_SLOPE 1.54, PBLUC_R_SQUARED 0.688, read-out: LUCIFERASE INFECTION ASSAY - IC50) is 4.08 µM.
As to `COc1ccc(NC(C(=O)Nc2cccc(C(F)(F)F)c2)c2ccccc2)cc1OC` (configuration not stated), the IC90 is above 10 µM. The IC50 (PBLUC_HILL_SLOPE 1.54, PBLUC_R_SQUARED 0.609, read-out: LUCIFERASE INFECTION ASSAY - IC50) is 5.09 µM.
As to `Nc1ccc(C(OC(=O)c2ccc(Cl)cc2Cl)(C(F)(F)F)C(F)(F)F)cc1`, the IC90 was above 10 µM. Besides, the half-inhibitory concentration (IC50) (PBLUC_HILL_SLOPE 1.55, PBLUC_R_SQUARED 0.496, read-out: LUCIFERASE INFECTION ASSAY - IC50) turned out to be 8.08 µM.
As for `COc1ccc2c(c1)CCCC21NC(=O)N(Cc2cc(=O)n3cc(C)ccc3n2)C1=O` (configuration not stated), the IC90 was 1.38 µM. Moreover, the IC50 (PBLUC_HILL_SLOPE 1.52, PBLUC_R_SQUARED 0.761, read-out: LUCIFERASE INFECTION ASSAY - IC50) amounted to 0.324 µM.
For the molecule `COc1ccc(/C=C2\CCCC3C2=NN(C(=O)CSc2ccccn2)C3c2ccc(OC)cc2)cc1` (configuration not stated), the IC90 was 9.76 µM. Also, the IC50 (PBLUC_HILL_SLOPE 1.58, PBLUC_R_SQUARED 0.267, read-out: LUCIFERASE INFECTION ASSAY - IC50) was 2.44 µM.
In the case of `CC(Sc1nc2ccccc2c(=O)n1CCN(C(C)C)C(C)C)C(N)=O` (configuration not stated), the IC90 was above 10 µM. Also, for the setting “PBLUC_HILL_SLOPE 1.51, PBLUC_R_SQUARED 0.457, read-out: LUCIFERASE INFECTION ASSAY - IC50”, the IC50 worked out at 6.73 µM.
Take `Cc1ccc(S(=O)(=O)Nc2ccc(Nc3nccn4c(-c5ccc(OC(F)(F)F)cc5)cnc34)cc2)cc1`: the IC90 is 3.49 µM. For the setting “PBLUC_HILL_SLOPE 1.58, PBLUC_R_SQUARED 0.687, read-out: LUCIFERASE INFECTION ASSAY - IC50”, the IC50 came to 0.867 µM.
Take `CCn1c(=O)n(Cc2ncc(-c3cccc(Cl)c3)o2)c2ccccc21`: the IC90 was above 10 µM. The IC50 (PBLUC_HILL_SLOPE 1.51, PBLUC_R_SQUARED 0.651, read-out: LUCIFERASE INFECTION ASSAY - IC50) came to 5.23 µM.
In the case of `Cc1cc(C(=O)COC(=O)c2[nH]nc3ccccc23)c(C)n1Cc1cccs1`, the IC90 was found to be 6.39 µM. The IC50 (PBLUC_HILL_SLOPE 1.56, PBLUC_R_SQUARED 0.399, read-out: LUCIFERASE INFECTION ASSAY - IC50) is 1.56 µM.

The values are drawn from ChEMBL document CHEMBL4483862, “Open-source discovery of chemical leads for next-generation chemoprotective antimalarials” (2018).
